target: T1, human PRS protein (His-Avi-hEPRS (998-1512)) (Homo sapiens, UniProt P07814); assay: PRS inhibitory activity ([32P]pyrophosphate exchange enzyme assay); format: biochemical; conditions: 300 nM test compound; 0.3 µM
T1 construct: to construct His-Avi-hEPRS (998-1512) expression plasmid; His tag (N); Avi tag (N); TEV cleavage site (ENLYFQG, then S; inferred from the forward primer hEPRS-TEV-NheF) (N); made in house; host or cells: E. coli BL21(DE3)
T1 sequence (P07814 998-1512 limits assumed): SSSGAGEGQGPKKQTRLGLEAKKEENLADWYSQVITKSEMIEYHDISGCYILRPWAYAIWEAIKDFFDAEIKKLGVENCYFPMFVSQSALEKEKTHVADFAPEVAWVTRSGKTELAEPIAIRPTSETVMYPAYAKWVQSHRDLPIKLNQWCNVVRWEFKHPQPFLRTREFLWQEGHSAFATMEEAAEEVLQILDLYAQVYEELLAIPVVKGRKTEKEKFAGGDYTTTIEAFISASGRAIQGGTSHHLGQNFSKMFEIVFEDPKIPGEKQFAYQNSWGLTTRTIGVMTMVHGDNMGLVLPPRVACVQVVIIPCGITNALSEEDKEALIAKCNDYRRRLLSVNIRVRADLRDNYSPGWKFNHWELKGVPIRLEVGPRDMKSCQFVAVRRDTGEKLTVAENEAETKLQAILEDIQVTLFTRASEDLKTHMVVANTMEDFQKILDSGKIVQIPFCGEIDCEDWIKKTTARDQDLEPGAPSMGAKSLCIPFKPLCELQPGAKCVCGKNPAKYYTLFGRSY
Experimental: The PRS inhibitory activity of the compounds of the present invention was evaluated by the following method.
An expression plasmid of Catalytic Domain of human EPRS was obtained by PCR using human skeletal muscle cDNA Library (Takara Bio Inc.) as a template and 2 kinds of Primers 5′-[…]-3′ (hEPRS-TEV-NheF) (SEQ ID NO: 1) and 5′-[…]-3′ (hEPRS-St-Not-R) (SEQ ID NO: 2). PCR was performed using PrimeStar GXL DNA Polymerase (Takara Bio Inc.) and included (1) 98° C., 1 min, (2) 35 cycles of 98° C., 10 sec, 65° C., 10 sec, 72° C., 1 min, and (3) reaction at 72° C., 1 min. This was cleaved with Nhe I and Not I (Takara Bio Inc.) and inserted using Ligation High (TOYOBO CO., LTD.) into the Nhe I/Not I site of pET21a (Novagen) with His-Avitag inserted thereinto. This was introduced into ECOS JM109 (NIPPON GENE CO., LTD.) to construct His-Avi-hEPRS (998-1512) expression plasmid.
Recombinant human PRS protein was prepared by transforming the His-Avi-hEPRS (998-1512) expression plasmid prepared above into ECOS Competent E. coli BL21(DE3) (NIPPON GENE CO., LTD.). Escherichia coli obtained by transformation was inoculated into 300 mL of LB medium (1% peptone, 0.5% yeast extract, 0.5% sodium chloride, 0.01% ampicillin) and cultured at 30° C. for 16 hr. The obtained culture medium was transferred into a jar culture tank charged with 6 L of the main fermentation medium (0.3% potassium dihydrogen phosphate, 0.6% disodium hydrogen phosphate, 0.1% ammonium chloride, 0.05% sodium chloride, 0.024% magnesium sulfate, 0.02% NEWPOL LB-625, 1.5% sorbitol, 1.5% casamino acid, 0.5% yeast extract, 0.01% ampicillin) and culturing was started at 37° C., quantity of airflow 5 L/min, stirring rotating speed 400 rpm. At the time point when the turbidity of the culture medium reached about 550 Klett units, the culture temperature was lowered to 16° C., isopropyl-β-D-thiogalactopyranoside (IPTG) was added to the final concentration 0.1 mM, and culturing was performed for another 16 hr to induce expression of human PRS. After completion of culturing, the culture medium was centrifuged at 5,000 rpm for 10 min. The obtained human PRS expressing Escherichia coli was suspended in a buffer containing 50 mM Tris-HCl (pH 8.0), 150 mM NaCl, 1 mM DTT, 5 U/ml Benzonase, 20 mM Imidazole and sonicated using Sonifier (BRANSON). The homogenate was centrifuged (33,000×G, 60 min, Beckman Coulter), the obtained supernatant was subjected to adsorption by passage through Ni-NTA Superflow (QIAGEN) column equilibrated in advance with 50 mM Tris-HCl (pH 8.0), 300 mM NaCl, 1 mM DTT, and elution was performed with a buffer containing 50 mM Tris-HCl (pH 8.0), 300 mM NaCl, 1 mM DTT, 250 mM Imidazole. Furthermore, gel filtration was performed using Superdex200 pg column equilibrated in advance with a buffer containing 50 mM Tris-HCl (pH 8.0), 150 mM NaCl, 1 mM DTT, 10% glycerol to give purified human PRS protein. The protein concentration was measured using BCA Protein Assay Kit (PIERCE) and BSA as the standard.
A test compound was dissolved in 5 μL of an assay buffer (50 mM Tris-HCl (pH 7.5), 20 mM KCl, 1 mM DTT, 0.01% Tween 20) and incubated for 60 min with 5 μL of 40 nM human PRS protein dissolved in the assay buffer containing 40 mM MgCl2. An enzyme reaction of the human PRS protein was started by adding 10 μL of a substrate solution containing 300 μM ATP, 160 μM L-Proline, 400 μM pyrophosphate, [^32P]pyrophosphate (PerkinElmer) prepared to 1 MBq/mL. After incubation at room temperature for 30 min, the reaction was discontinued by adding 50 μL of discontinuation/washing solution (1M HCl, 200 mM sodium pyrophosphate) to the reaction mixture. The reaction solution was transferred to a filter plate (Merck Millipore, Billerica, Mass.) previously added with 200 μL of charcoal solution (0.5% HCl solution containing 10% charcoal (w/v)). […]

SMILES | inhibitory rate (%) of PRS [%]
Cn1cc(-c2cc(F)cc(CNC(=O)c3ncnc4nc(C5COCCO5)[nH]c34)c2)cn1 (centres unmarked) [Example 34, 8-(1,4-dioxan-2-yl)-N-(3-fluoro-5-(1-methyl-1H-pyrazol-4-yl)benzyl)-7H-purine-6-carboxamide] | 101
Cn1cc(-c2cc(F)cc(CNC(=O)c3ncnc4nc(C5COCCO5)[nH]c34)c2)cn1 (centres unmarked) [Example 33, 8-(1,4-dioxan-2-yl)-N-(3-fluoro-5-(1-methyl-1H-pyrazol-4-yl)benzyl)-7H-purine-6-carboxamide] | 99

same assay, conditions: 300 nM test compound; read-out: inhibitory rate (%) of PRS

SMILES | inhibition at 0.3 µM [%]
COc1c(F)cc(-c2cnn(C)c2)cc1CNC(=O)c1ncnc2nc(C3CCCC3)n(C)c12 [Example 6, 8-cyclopentyl-N-(3-fluoro-2-methoxy-5-(1-methyl-1H-pyrazol-4-yl)benzyl)-7-methyl-7H-purine-6-carboxamide] | 79
Cn1cc(-c2cc(F)cc(CNC(=O)c3cc(N4CC[C@@](C#N)(C5CC5)C4=O)cc(C4CC4)n3)c2)cn1 [Example 225, 4-((3S)-3-cyano-3-cyclopropyl-2-oxopyrrolidin-1-yl)-6-cyclopropyl-N-(3-fluoro-5-(1-methyl-1H-pyrazol-4-yl)benzyl)pyridine-2-carboxamide] | 66
Cn1cc(-c2cc(F)cc(CNC(=O)c3ncnc4nc(C5CCS(=O)(=O)C5)[nH]c34)c2)cn1 (centres unmarked) [Example 28, 8-(1,1-dioxidotetrahydrothiophen-3-yl)-N-(3-fluoro-5-(1-methyl-1H-pyrazol-4-yl)benzyl)-7H-purine-6-carboxamide] | 101
Cc1cc(N2CCC(C#N)(CC3CC3)C2=O)cc(C(=O)NCc2cc(F)cc(-c3cnn(C)c3)c2)n1 (centres unmarked) [Example 230, 4-(3-cyano-3-(cyclopropylmethyl)-2-oxopyrrolidin-1-yl)-N-(3-fluoro-5-(1-methyl-1H-pyrazol-4-yl)benzyl)-6-methylpyridine-2-carboxamide] | 91
Cc1nc(C(=O)NCc2cc(F)cc(-c3cnn(C)c3)c2)cc(N2CC[C@@](C#N)(C3CC3)C2=O)n1 [Example 237, 6-((3S)-3-cyano-3-cyclopropyl-2-oxopyrrolidin-1-yl)-N-(3-fluoro-5-(1-methyl-1H-pyrazol-4-yl)benzyl)-2-methylpyrimidine-4-carboxamide] | 74
CC(C)c1nc2ccnc(C(=O)NCc3cc(F)cc(-c4cnn(C)c4)c3)c2[nH]1 [Example 99, N-(3-fluoro-5-(1-methyl-1H-pyrazol-4-yl)benzyl)-2-isopropyl-3H-imidazo[4,5-c]pyridine-4-carboxamide] | 96
Cn1c(C2CCCC2)nc2ccnc(C(=O)NCc3ccccc3Cl)c21 [Example 85, N-(2-chlorobenzyl)-2-cyclopentyl-3-methyl-3H-imidazo[4,5-c]pyridine-4-carboxamide] | 97
CCc1cc(N2CC[C@@](C#N)(C3CC3)C2=O)cc(C(=O)NCc2cc(F)cc(-c3cnn(C)c3)c2)n1 [Example 219, 4-((3S)-3-cyano-3-cyclopropyl-2-oxopyrrolidin-1-yl)-6-ethyl-N-(3-fluoro-5-(1-methyl-1H-pyrazol-4-yl)benzyl)pyridine-2-carboxamide] | 94
Cc1cc(N2CC[C@@](C#N)(C3CC3)C2=O)cc(C(=O)NCc2cc(F)cc(-c3cncnc3)c2)n1 [Example 205, 4-((3S)-3-cyano-3-cyclopropyl-2-oxopyrrolidin-1-yl)-N-(3-fluoro-5-(pyrimidin-5-yl)benzyl)-6-methylpyridine-2-carboxamide] | 86
Cn1cc(-c2cc(F)cc(CNC(=O)c3nccc4nc(C5CCCC5)n(Cc5ccccc5)c34)c2)cn1 [Example 123, 3-benzyl-2-cyclopentyl-N-(3-fluoro-5-(1-methyl-1H-pyrazol-4-yl)benzyl)-3H-imidazo[4,5-c]pyridine-4-carboxamide] | 69
Cn1cc(-c2cc(F)cc(CNC(=O)c3nccc4nc(C5CCCC5)n(CC5CC5)c34)c2)cn1 [Example 114, 2-cyclopentyl-3-(cyclopropylmethyl)-N-(3-fluoro-5-(1-methyl-1H-pyrazol-4-yl)benzyl)-3H-imidazo[4,5-c]pyridine-4-carboxamide] | 101
O=C(NCc1cccc(-c2ccccc2)c1)c1nccc2nc(C3CCCC3)[nH]c12 [Example 83, N-(biphenyl-3-ylmethyl)-2-cyclopentyl-3H-imidazo[4,5-c]pyridine-4-carboxamide] | 98
CC1(c2nc3ccnc(C(=O)NCc4ccccc4Cl)c3[nH]2)CCCC1 [Example 87, N-(2-chlorobenzyl)-2-(1-methylcyclopentyl)-3H-imidazo[4,5-c]pyridine-4-carboxamide] | 74
Cc1cc(N2CCC(CO)(C3CC3)C2=O)cc(C(=O)NCc2cc(F)cc(-c3cnn(C)c3)c2)n1 (centres unmarked) [Example 235, 4-(3-cyclopropyl-3-(hydroxymethyl)-2-oxopyrrolidin-1-yl)-N-(3-fluoro-5-(1-methyl-1H-pyrazol-4-yl)benzyl)-6-methylpyridine-2-carboxamide] | 69
O=C(NCc1cccc(Br)c1)c1nccc2nc(C3CCCC3)[nH]c12 [Example 82, N-(3-bromobenzyl)-2-cyclopentyl-3H-imidazo[4,5-c]pyridine-4-carboxamide] | 98
Cc1cc(N2CC[C@@](C#N)(C3CC3)C2=O)cc(C(=O)NCc2cc(-c3cnn(C)c3)cc(C(F)(F)F)c2)n1 [Example 218, 4-((3S)-3-cyano-3-cyclopropyl-2-oxopyrrolidin-1-yl)-6-methyl-N-(3-(1-methyl-1H-pyrazol-4-yl)-5-(trifluoromethyl)benzyl)pyridine-2-carboxamide] | 83
Cn1cc(-c2ccnc(CNC(=O)c3nccc4nc(C5CCCC5)n(C)c34)n2)cn1 [Example 146, 2-cyclopentyl-3-methyl-N-((4-(1-methyl-1H-pyrazol-4-yl)pyrimidin-2-yl)methyl)-3H-imidazo[4,5-c]pyridine-4-carboxamide] | 78
Cc1cc(N2CCC(C3CC3)C2=O)cc(C(=O)NCc2cc(F)cc(-c3cnn(C)c3)c2)n1 (centres unmarked) [Example 234, 4-(3-cyclopropyl-2-oxopyrrolidin-1-yl)-N-(3-fluoro-5-(1-methyl-1H-pyrazol-4-yl)benzyl)-6-methylpyridine-2-carboxamide] | 87

From patent publication US10774083B2, “Heterocyclic amide compound” (TAKEDA PHARMACEUTICAL COMPANY LIMITED, priority 2016, dated 2020)
